Measured values as given in patent US20040052750A1, “Compositions for prevention and alleviation of skin wrinkles” (priority 2000, published 2004).

Columns and labels:
[1] = system: fibroblasts derived from a human; assay: Promoting collagen production in fibroblasts (3H-proline incorporation into collagenase-sensitive protein); format: cell-based; conditions: control = 100%
Description: The experimental protocol in detail is as follows.
Human-derived fibroblasts were transferred to a 24 well plate and cultured in a medium containing 10% fetal bovine serum (FBS) for 24 hours, followed by washing twice with phosphate buffered saline. […] After the incubation was terminated, cells from each group were harvested and two fractions of each culture were prepared. One fraction from each culture was treated with collagenase. To all fractions was added trichloroacetic acid to precipitate proteins. The amount of radioactivity incorporated into collagenase-sensitive protein was measured and compared with that of the other fraction which was not treated with collagenase. The difference in radioactivity was attributed to the promoting effect of the compound.

rat skin = assay: Promotion of collagen production in rat skin (hydroxyproline in implanted PVA sponge); format: in vivo, SD rats; conditions: 200 μl every day for 10 days, control = 100%
Description: In brief, 5-week male SD rats were grouped with 5 rats per group. The rats were each incised 1 cm in the center of their abdomens and PVA sponges (Unipoint ind.) were inserted therein. After suturing, as for experimental groups, respective active ingredients to be examined were applied to the PVA sponge-embeded regions i n a volume o f 200 μl every day for 10 days. Upon autopsy, the PVA sponge was removed to quantify hydroxyproline. The PVA sponge was added with 4 ml of 6 N HCl, hydrolized at 130° C. for 3 hours and was subjected to complete drying. 50 μl of methanol was added and the solution was incubated at 110° C. until HCl was removed. 1.2 ml of 50% isopropanol was added to dissolve the remaining precipitate. 200 μl of chloramine-T (sodium p-toluensulfochloramide trihydrate) solution was added while stirring, and let stand for 10 min. After adding 1.2 ml of Ehrlich reagent and mixing, the solution was incubated at 50° C. for 90 min. The resulting solution was cooled to room temperature and absorbance at 558 nm was measured. Hydroxyproline standard solutions were prepared by dissolving 1 mg hydroxyproline in 1 ml HCl and diluting it to concentrations of 0, 0.2, 0.4, 0.8, 1 mg each relative to 25 μl of 6 N HCl. The standard solutions were hydrolyzed at 130° C. for 3 hours. The quantified value of hydroxyproline, relative to hydroxyproline value (100%) of the control group which was applied with solvent only, are shown in Table 2.

hairless mice [2] = assay: Inhibiting the generation of wrinkles in hairless mice (simulated sunlight); format: in vivo; conditions: 10 per group
Description: 6-week hairless mice were placed into 21 experimental groups and 3 control groups, with 10 rats per group. […] The experimental protocol in detail is as follows. Hairless mice were radiated using simulated sunlight at a dose of 2 MED (double Minimal Erythema Dose) 3 days a week for […], thereby generating wrinkles. Respective active ingredients or the solvent only were applied twice every day (specifically, on radiation days, the application was performed at 30 min before and after the radiation), at a volume of 100 μl each for 10 weeks from the first radiation day. Degrees of inhibition of generated wrinkles were determined. The determination was performed by visual observation with naked eyes and photography.

hairless mice [3] = assay: Alleviating photo-induced wrinkles in hairless mice; format: in vivo; conditions: twice a day for 6 weeks, 10 per group
Description: Mice were placed into 21 experimental groups and 3 control groups, with 10 rats per group. […] The experimental protocol is as follows. Hairless mice were radiated using a simulated sunlight at a dose of 2 MED (double Minimal Erythema Dose) 3 days a week for 10 weeks, thereby generating wrinkles. Then, respective active ingredients or the solvent only were applied at a volume of 100 μl each, twice a day for 6 weeks. Degrees of wrinkle reduction were determined. The determination was performed by visually observing the compound-applied region with naked eyes, and the region was photographed. The degrees of alleviation of wrinkles in the compound-treatment groups (experimental groups) were compared with those of the control group and were determined as one of 4 stages, that is, none (Score 0), slight (Score 1), moderate (Score 2) and high (Score 3), and the corresponding mice were counted.

Row | SMILES | Effect of promoting collagen production in fibroblasts (rate of collagen production) ([1]; 10^-5 M) | Effect of promoting collagen production in fibroblasts (rate of collagen production) ([1]; 10^-6 M) | Effect of promoting collagen production in fibroblasts (rate of collagen production) ([1]; 10^-7 M) | Effect of promoting collagen production in fibroblasts (rate of collagen production) ([1]; 10^-8 M) | Effect of promoting collagen production in animal skin (hydroxyproline value vs control) (rat skin; 10^-5 M) | Effect of promoting collagen production in animal skin (hydroxyproline value vs control) (rat skin; 10^-6 M) | Effect of promoting collagen production in animal skin (hydroxyproline value vs control) (rat skin; 10^-7 M) | Effect of promoting collagen production in animal skin (hydroxyproline value vs control) (rat skin; 10^-8 M) | Inhibition of wrinkles, Score 0 (none) (hairless mice [2]; 10^-3 M) | Inhibition of wrinkles, Score 1 (slight) (hairless mice [2]; 10^-3 M) | Inhibition of wrinkles, Score 2 (moderate) (hairless mice [2]; 10^-3 M) | Inhibition of wrinkles, Score 3 (high) (hairless mice [2]; 10^-3 M) | Inhibition of wrinkles, Score 0 (none) (hairless mice [2]; 10^-5 M) | Inhibition of wrinkles, Score 1 (slight) (hairless mice [2]; 10^-5 M) | Inhibition of wrinkles, Score 2 (moderate) (hairless mice [2]; 10^-5 M) | Inhibition of wrinkles, Score 3 (high) (hairless mice [2]; 10^-5 M) | Inhibition of wrinkles, Score 0 (none) (hairless mice [2]; 10^-8 M) | Inhibition of wrinkles, Score 1 (slight) (hairless mice [2]; 10^-8 M) | Inhibition of wrinkles, Score 2 (moderate) (hairless mice [2]; 10^-8 M) | Inhibition of wrinkles, Score 3 (high) (hairless mice [2]; 10^-8 M) | further results
1 | COc1ccc([C@@H]2Sc3ccccc3N(CCN(C)C)C(=O)[C@@H]2OC(C)=O)cc1 [Diltiazem] | 362.12% | 321.23% | 276.25% | 199.15% | 175.23% | 157.45% | 136.76% | 122.44% | 0 number of mice | 1 number of mice | 2 number of mice | 7 number of mice | 0 number of mice | 2 number of mice | 2 number of mice | 6 number of mice | 0 number of mice | 2 number of mice | 2 number of mice | 6 number of mice | Reduction of wrinkles, Score 0 (none) (hairless mice [3]; 10^-3 M): 0 number of mice; Reduction of wrinkles, Score 1 (slight) (hairless mice [3]; 10^-3 M): 0 number of mice; Reduction of wrinkles, Score 2 (moderate) (hairless mice [3]; 10^-3 M): 2 number of mice; Reduction of wrinkles, Score 3 (high) (hairless mice [3]; 10^-3 M): 8 number of mice; Reduction of wrinkles, Score 0 (none) (hairless mice [3]; 10^-5 M): 0 number of mice; Reduction of wrinkles, Score 1 (slight) (hairless mice [3]; 10^-5 M): 1 number of mice; Reduction of wrinkles, Score 2 (moderate) (hairless mice [3]; 10^-5 M): 2 number of mice; Reduction of wrinkles, Score 3 (high) (hairless mice [3]; 10^-5 M): 7 number of mice; Reduction of wrinkles, Score 0 (none) (hairless mice [3]; 10^-8 M): 0 number of mice; Reduction of wrinkles, Score 1 (slight) (hairless mice [3]; 10^-8 M): 1 number of mice; Reduction of wrinkles, Score 2 (moderate) (hairless mice [3]; 10^-8 M): 2 number of mice; Reduction of wrinkles, Score 3 (high) (hairless mice [3]; 10^-8 M): 7 number of mice
2 | CCCC(CCC)C(=O)O [Valproic acid] | 370.21% | 332.11% | 283.24% | 201.13% | 178.13% | 157.72% | 139.24% | 128.05% | 0 number of mice | 0 number of mice | 2 number of mice | 8 number of mice | 0 number of mice | 1 number of mice | 2 number of mice | 7 number of mice | 0 number of mice | 1 number of mice | 1 number of mice | 8 number of mice | Reduction of wrinkles, Score 0 (none) (hairless mice [3]; 10^-3 M): 0 number of mice; Reduction of wrinkles, Score 1 (slight) (hairless mice [3]; 10^-3 M): 0 number of mice; Reduction of wrinkles, Score 2 (moderate) (hairless mice [3]; 10^-3 M): 2 number of mice; Reduction of wrinkles, Score 3 (high) (hairless mice [3]; 10^-3 M): 8 number of mice; Reduction of wrinkles, Score 0 (none) (hairless mice [3]; 10^-5 M): 0 number of mice; Reduction of wrinkles, Score 1 (slight) (hairless mice [3]; 10^-5 M): 1 number of mice; Reduction of wrinkles, Score 2 (moderate) (hairless mice [3]; 10^-5 M): 2 number of mice; Reduction of wrinkles, Score 3 (high) (hairless mice [3]; 10^-5 M): 7 number of mice; Reduction of wrinkles, Score 0 (none) (hairless mice [3]; 10^-8 M): 0 number of mice; Reduction of wrinkles, Score 1 (slight) (hairless mice [3]; 10^-8 M): 1 number of mice; Reduction of wrinkles, Score 2 (moderate) (hairless mice [3]; 10^-8 M): 2 number of mice; Reduction of wrinkles, Score 3 (high) (hairless mice [3]; 10^-8 M): 7 number of mice
